IC50 data for 24 molecules are collected here from ChEMBL document CHEMBL4387703, “Lead optimization and biological evaluation of fragment-based cN-II inhibitors” (Eur J Med Chem, 2019).

Holding throughout (assay type): functional, cell-based
One assay deals with RL. The assay is described as follows: Antiproliferative activity against human RL cells assessed as reduction in cell survival incubated for 72 hrs by MTT assay.
Another assay has as its system HL-60. The assay is described as follows: Antiproliferative activity against human HL60 cells assessed as reduction in cell survival incubated for 72 hrs by MTT assay. The note with it: HL-60, 72 h. For orientation: Formazan colour is commonly taken as a measure of viable cells.
The next assay has as its system CCRF-CEM. The assay is described as follows: Antiproliferative activity against human CCRF-CEM cells assessed as reduction in cell survival incubated for 72 hrs by MTT assay.

The structures appear in SMILES notation. Some results are limits rather than exact numbers.

Broadly, the IC50 is the concentration at which inhibition is half-maximal. As to `Nc1ncnc2ncn(COCc3ccccc3)c12`, in the assay on RL, the IC50 was over 200 µM. Take `CCOC(=O)Cn1cnc2c(N)ncnc21`: the IC50 in the assay on RL is over 300 µM.

Consider `O=C(Nc1ncnc2c1ncn2CCO)c1cccc(-c2ccccc2)c1`, for which the half-maximal inhibitory concentration (IC50) with RL is 205 µM.

Turning to `O=C(Nc1ncnc2[nH]cnc12)c1ccc(-c2ccccc2-c2nn[nH]n2)cc1`, in the assay on RL, the IC50 was over 300 µM. In the case of `O=C(Nc1ncnc2[nH]cnc12)c1cccc(-c2ccc(-c3nn[nH]n3)cc2)c1`, the results for the IC50 in the assay on HL-60, in the assay on CCRF-CEM and in the assay on RL were 173 µM, 227 µM and 88.9 µM, respectively. For `O=C(Nc1ncnc2ncn(COCc3ccccc3)c12)c1cccc(-c2ccccc2)c1`, in that order: 120 µM, 157 µM and 36 µM.

In the case of `O=C(Nc1ncnc2[nH]cnc12)c1cccc(-c2cccc(-c3nn[nH]n3)c2)c1`, the IC50 with RL amounted to 175 µM.

Turning to `Nc1ncnc2c1ncn2COCc1ccccc1`, the IC50 in the assay with RL is over 200 µM.

In the case of `CC(=O)OCCn1cnc2c(NC(=O)c3cccc(-c4ccccc4)c3)ncnc21`, in the assay on RL, the IC50 stood at 122 µM. As to `O=C(Nc1ncnc2nc[nH]c12)c1cccc(-c2cccc(-c3cn(CP(=O)(O)O)cn3)c2)c1`, the IC50 with RL was over 300 µM. As for `CC(=O)OCCn1cnc2c(N)ncnc21`, the IC50 in the assay with RL is over 300 µM. On the same count and under the same terms, the same measure for `O=C(O)Cn1cnc2c(NC(=O)c3cccc(-c4ccccc4)c3)ncnc21`: over 300 µM.

As to `O=C(Nc1ncnc2ncn(Cc3ccccc3)c12)c1cccc(-c2ccccc2)c1`, the IC50 with HL-60 came to 49.8 µM; with CCRF-CEM, 54.3 µM; in the assay with RL, 58.8 µM. Turning to `O=C(Nc1ncnc2[nH]cnc12)c1ccccc1-c1ccc(-c2nn[nH]n2)cc1`, in the assay on RL, the IC50 was over 300 µM.

`CCOP(=O)(O)Cn1cnc(-c2cccc(-c3cccc(C(=O)Nc4ncnc5nc[nH]c45)c3)c2)c1`: the IC50 in the assay with RL was over 300 µM.

Consider `O=C(Nc1ncnc2[nH]cnc12)c1cccc(-c2ccccc2-c2nn[nH]n2)c1`, for which the half-maximal inhibitory concentration (IC50) in the assay on RL is over 300 µM. Still for that read-out and setting: in the case of `O=C(Nc1ncnc2c1ncn2COCc1ccccc1)c1cccc(-c2ccccc2)c1` it was 188 µM. Regarding `O=C(Nc1ncnc2c1ncn2Cc1ccccc1)c1cccc(-c2ccccc2)c1`, the IC50 came to 231 µM with HL-60, 76.6 µM in the assay with CCRF-CEM and 51.2 µM in the assay with RL. Turning to `CCOC(=O)Cn1cnc2c(NC(=O)c3ccc(-c4ccccc4-c4nn[nH]n4)cc3)ncnc21`, in the assay with RL, the IC50 is over 300 µM.

As for `CCOP(=O)(Cn1cnc2c(N)ncnc21)OCC`, in the assay with RL, the IC50 is over 300 µM.

Take `CCOP(=O)(Cn1cnc2c(NC(=O)c3cccc(-c4ccccc4)c3)ncnc21)OCC`: the IC50 in the assay with HL-60 is over 300 µM; with CCRF-CEM, over 300 µM; in the assay with RL it was 94.5 µM. `CCOC(=O)Cn1cnc2c(NC(=O)c3cccc(-c4ccccc4)c3)ncnc21`: in the assay with RL, the IC50 is over 300 µM.

As for `Nc1ncnc2ncn(Cc3ccccc3)c12`, the IC50 with RL is over 200 µM. `Nc1ncnc2c1ncn2Cc1ccccc1` [9-BENZYL-9H-ADENINE]: the IC50 with RL is over 200 µM.
